Laboratory results from ChEMBL document CHEMBL1134234, “NO-independent stimulators of soluble guanylate cyclase” (Bioorg Med Chem Lett, 2001).

How the values were obtained:
Oryctolagus cuniculus [1] = organism: Oryctolagus cuniculus; test: (§1) Ability to inhibit maximum constriction of phenylephrine-treated precontracted (3x10 -8 g/mL) rabbit aortic rings; type: functional; details: Aorta
Oryctolagus cuniculus [2] = organism: Oryctolagus cuniculus; test: as §1; type: functional, Aorta

Row | Compound | IC50 (Oryctolagus cuniculus [1]) [µM] | Inhibition (Oryctolagus cuniculus [2]) [%]
1 | Fc1ccccc1Cn1nc(-c2nn[nH]n2)c2cccnc21 | 8.6 | –
2 | CCc1cnc(-c2nn(Cc3ccccc3F)c3ncccc23)nc1N | 272 | –
3 | CC(C#N)CCCCCc1cnc(-c2nn(Cc3ccccc3F)c3ncccc23)nc1N (centres undefined) | 1290 | –
4 | OCc1ccc(-c2nn(Cc3ccc(F)cc3)c3ccccc23)o1 | 19 | –
5 | OCc1ccc(-c2nn(Cc3ccccn3)c3ccccc23)o1 | 16 | –
6 | Cc1nc(-c2nn(Cc3ccccc3F)c3ncccc23)oc1CO | 0.9 | –
7 | OCc1ccc(-c2nn(Cc3ccccc3F)c3ccccc23)o1 | 4.9 | –
8 | Nc1nc(-c2nn(Cc3ccccc3F)c3ncccc23)ncc1N1CCOCC1 | 306 | –
9 | NCc1cnc(-c2nn(Cc3ccccc3F)c3ncccc23)nc1N | 1.4 | –
10 | N#Cc1ccccc1Cn1nc(-c2ccc(CO)o2)c2ccccc21 | 8.7 | –
11 | OCc1ccc(-c2nn(Cc3cncnc3)c3ccccc23)o1 | 3.2 | –
12 | OCc1ccc(-c2nn(Cc3ccccc3F)c3ncccc23)o1 | 1.7 | –
13 | N#Cc1cccc(Cn2nc(-c3ccc(CO)o3)c3ccccc32)c1 | 26 | –
14 | Cc1cc(N)nc(-c2nn(Cc3ccccc3F)c3ncccc23)n1 | 536 | –
15 | Fc1ccccc1Cn1nc(-c2ccco2)c2cccnc21 | 9.3 | –
16 | N#CCCc1cnc(-c2nn(Cc3ccccc3F)c3ncccc23)nc1N | 412 | –
17 | Nc1nc(-c2nn(Cc3ccccc3F)c3ncccc23)nc(N)c1C1CC1 | 233 | –
18 | CCCCc1cnc(-c2nn(Cc3ccccc3F)c3ncccc23)nc1N | 218 | –
19 | CSc1cnc(-c2nn(Cc3ccccc3F)c3ncccc23)nc1N | 243 | –
20 | CC(C)(C)c1cnc(-c2nn(Cc3ccccc3F)c3ncccc23)nc1N | 0.709 | –

Row | Compound | IC50 (Oryctolagus cuniculus [1]) [µM] | Inhibition (Oryctolagus cuniculus [2]) [%]
21 | OCc1ccc(-c2nn(Cc3ccccc3F)c3ncncc23)o1 | 9.4 | –
22 | OCc1ccc(-c2nn(Cc3cccc(F)c3)c3ccccc23)o1 | 10 | –
23 | OCc1ccc(-c2nn(Cc3ccc(Cl)s3)c3ccccc23)o1 | 7.2 | –
24 | OCc1ccc(-c2nn(Cc3ccccc3F)c3cnccc23)o1 | 6.93 | –
25 | Nc1nc(-c2nn(Cc3ccccc3F)c3ncccc23)ncc1F | 478 | –
26 | Cc1cnc(-c2nn(Cc3ccccc3F)c3ncccc23)nc1N | 675 | –
27 | OCc1ccc(-c2nn(Cc3cccnc3)c3ccccc23)o1 | 9.6 | –
28 | CC(C)S(=O)(=O)c1cnc(-c2nn(Cc3ccccc3F)c3ncccc23)nc1N | 517 | –
29 | N#CCCCCCc1cnc(-c2nn(Cc3ccccc3F)c3ncccc23)nc1N | 588 | –
30 | CCCCCCc1cnc(-c2nn(Cc3ccccc3F)c3ncccc23)nc1N | 1.04 | –
31 | CCCc1cnc(-c2nn(Cc3ccccc3F)c3ncccc23)nc1N | 252 | –
32 | CCCS(=O)(=O)c1cnc(-c2nn(Cc3ccccc3F)c3ncccc23)nc1N | 378 | –
33 | Nc1nc(-c2nn(Cc3ccccc3F)c3ncccc23)ncc1CC(F)(F)F | 508 | –
34 | OCc1ccc(-c2nn(Cc3c(F)cccc3F)c3ccccc23)o1 | 15 | –
35 | CC(C)c1cnc(-c2nn(Cc3ccccc3F)c3ncccc23)nc1N | 207 | –
36 | Nc1nc(-c2nn(Cc3ccccc3F)c3ncccc23)ncc1C1CCCCC1 | 561 | –
37 | Fc1ccccc1Cn1nc(C2=NCCN2)c2cccnc21 | 3.2 | –
38 | Nc1nc(-c2nn(Cc3ccccc3F)c3ncccc23)ncc1C1CC1 | 304 | –
39 | OCc1ccc(-c2nn(Cc3ccccc3)c3ccccc23)o1 | 10 | –
40 | CCOP(=O)(OCC)c1cnc(-c2nn(Cc3ccccc3F)c3ncccc23)nc1N | 414 | –

Row | Compound | IC50 (Oryctolagus cuniculus [1]) [µM] | Inhibition (Oryctolagus cuniculus [2]) [%]
41 | OCc1ccc(-c2nn(Cc3ccccc3F)c3cccnc23)o1 | 20.4 | 27
42 | OCc1ccnc(-c2nn(Cc3ccccc3F)c3ncccc23)n1 | 1.3 | –
43 | Nc1nc(-c2nn(Cc3ccccc3F)c3ncccc23)ncc1C1CCCC1 | 0.904 | –
44 | COc1cnc(-c2nn(Cc3ccccc3F)c3ncccc23)nc1N | 343 | –
45 | CCc1c[nH]c(-c2nn(Cc3ccccc3F)c3ncccc23)n1 | 0.6 | –
46 | CS(=O)(=O)c1cnc(-c2nn(Cc3ccccc3F)c3ncccc23)nc1N | 261 | –
47 | Cc1coc(-c2nn(Cc3ccccc3F)c3ncccc23)n1 | 1.2 | –
48 | Fc1ccccc1Cn1nc(-c2cc[nH]n2)c2cccnc21 | 1.8 | –
49 | Nc1nc(-c2nn(Cc3ccccc3F)c3ncccc23)ncc1N1CCSCC1 | 650 | –
50 | Cc1oc(-c2nn(Cc3ccccc3F)c3ncccc23)nc1CO | 1.5 | –
51 | OCc1ccc(-c2nn(Cc3ccccc3F)c3ccncc23)o1 | 9.8 | –
52 | Nc1nc(-c2nn(Cc3ccccc3F)c3ncccc23)ncc1C1=CCCC1 | 0.836 | –
53 | Fc1ccccc1Cn1nc(-c2ncccn2)c2cccnc21 | 1.25 | –
54 | Nc1nc(-c2nn(Cc3ccccc3F)c3ncccc23)ncc1C1CCC1 | 633 | –
55 | CCCCCc1cnc(-c2nn(Cc3ccccc3F)c3ncccc23)nc1N | 200 | –
56 | Fc1ccccc1Cn1nc(-c2ccccn2)c2cccnc21 | 4.8 | –
57 | N#Cc1cnc(-c2nn(Cc3ccccc3F)c3ncccc23)nc1N | 391 | –
58 | NS(=O)(=O)c1ccc(-c2nn(Cc3ccccc3F)c3ncccc23)o1 | 8 | –
